# From patent US20030229108A1, “Barbituric acid analogs as therapeutic agents” (priority 2000, published 2003)
# How the values were obtained:
# VEGF = assay: VEGF-ELISA (Quantikine sandwich immunoassay of VEGF in cell supernatant); format: cell-based; conditions: Homo sapiens, 17 h; read-out: Secondary Assay VEGF-ELISA IC50
# Method: This assay employs the quantitative sandwich enzyme immunoassay technique. A monoclonal antibody (R&D Systems®, Abingdon, Oxon, UK) specific for VEGF was pre-coated onto a microplate. To this was added a sample containing VEGF. After washing, a second anti-VEGF antibody coupled to horseradish peroxidase was added. […] Typically, cells were plated at a concentration of 2.5×10^4 cells/well, and incubated with either 100 μM desferroxamine or at 0.1% O2 for 17 hours at 37° C. 200 μL of supernatant were removed and the VEGF quantitated using the Quantikine® ELISA kit from R&D Systems® (catalog # DVEOO) exactly according to the manufacturer's instructions. The assay is calibrated each time using recombinant human VEGF.
# [1] = test system: VEGF promoter (VEGF-luciferase reporter) in Hepatoma 3B (hep3B) cells; assay: VEGF-luciferase cell-based reporter assay, desferoxamine-induced, Hepatoma 3B (hep3B) cells; conditions: 15 h, read-out: Secondary Assay VEGF-luciferase IC50
# Description: This cell-based reporter assay involves the use of a luciferase reporter gene under the direct control of the VEGF promoter. Induction of HIF using desferoxamine leads to the transcription of luciferase through activation of the VEGF (Vascular Endothelial Growth Factor) promoter, which in turn leads to an increase in luciferase activity, which can be measured using most commercially available luciferase assay kits. Molecules that disrupt the HIF complex cause inhibition of HIF-dependent luciferase activation and lead to a reduction in luciferase activity. This assay allows the activity of the compounds to be assessed against the VEGF promoter, which is essential for VEGF production and subsequent angiogenesis.
# Hepatoma 3B (hep3B) cells (ATCC Ref. No. HB-8064) were plated in 24-well plates at 2×10^4/well in 500 μL DMEM/10% FCS, and were transfected the following day using Fugene 6 (Roche Biochemicals®, Lewes, E. Sussex, UK). Transfection mixtures per well contained 6 μL 10% Fugene, 200 ng VEGF-luciferase reporter (rat VEGF promoter, NCBI GenBank, accession number U22373, Levy et al., 1995) and 2 ng TK-renilla (Promega®, Madison, Wis., USA) (for transfection efficiency control). Transfection was performed as recommended by manufacturer. Compounds were added the following day. After 1 hour incubation at 37° C., desferoxamine (Sigma®, Dorset, UK) was added at 100 μM to induce HIF activity. Duplicate wells without desferoxamine were run in parallel. Cells were harvested 15 hours later, and luciferase activity was measured using Dual Luciferase Assay System (Promega®, see also Technical Manual, Part #TM040, Instructions for Use of Products E1910 and E1960, revised May/1999).
# [2] = target: T1, interaction between HIF-1α and p300 (His-HIF-1α / GST-p300) (Homo sapiens, UniProt Q09472+Q16665); assay: Primary assay: fluorescence-based (DELFIA) screening assay for inhibition of the HIF-1α/p300 interaction; format: binding
# T1 construct: corresponding to the C-terminal 390 amino acids into vector pET28a; A plasmid containing the N-terminal 595 amino acids of human p300; made in house; host or cells: E. coli
# Method: Candidate compounds were assessed for their ability to inhibit the interaction between HIF-1α and p300 using a high throughput fluorescence-based screening assay (DELFIA) as follows.
# A plasmid expressing His-HIF-1α fusion protein was constructed by PCR, by amplifying and subcloning a fragment of the human HIF-1α cDNA (NCBI GenBank, accession number AH006957) corresponding to the C-terminal 390 amino acids into vector pET28a (Novagen®, Madison, Wis., USA). A plasmid containing the N-terminal 595 amino acids of human p300 (NCBI GenBank, accession number U01877) inserted into vector pGEX2T (Pharmacia®, Little Chalfont, Bucks, UK) was used for the production of GST-p300 fusion protein. The recombinant proteins were produced in E. coli. His-HIF-1α was purified using Ni-NTA agarose beads, according to manufacture's method (Qiagen®, Crawley, West Sussex, UK). GST-p300 was purified using Glutathione-sepharose beads (Amersham Pharmacia®, Little Chalfont, Bucks, UK) according to manufacturer's instructions. A titration of every batch of p300 was carried out in order to determine the optimum dilution of the protein to obtain at least a 10:1 ratio signal to noise in the binding assay.
# The assay was performed in 96-well Polysorb plates (Nalge Nunc International®, Rochester, N.Y., USA) as follows. Plates were coated with His-HIF-1α at 50 ng/well in […] and incubated overnight at 4° C. The plates were then washed 3 times with deionized water and blocked with 100 μL/well 3% BSA in PBS for 3 hours at 4° C. After washing 3 times as before, GST-p300 was added at the appropriate dilution (1:800 in this screening) in binding buffer (50 mM HEPES pH 7.5, 50 mM NaCl, 0.1% BSA, 0.5 mM DTT). The reaction was incubated at room temperature for 1 hour. Plates were washed 3 times and anti-GST Europium-conjugated antibody (from Wallac®, Turku, Finland) was added at 50 ng/well in […]. After 45 minutes incubation, plates were washed 3 times as before. Then, 100 μL/well enhancement solution (from Wallac®, Catalog No. 1244-105) was added and allowed to react for 15 minutes at room temperature. Plates were read on a Victor 2 plate reader (from Wallac®).
# T1 sequence (Q16665 437-826 limits assumed): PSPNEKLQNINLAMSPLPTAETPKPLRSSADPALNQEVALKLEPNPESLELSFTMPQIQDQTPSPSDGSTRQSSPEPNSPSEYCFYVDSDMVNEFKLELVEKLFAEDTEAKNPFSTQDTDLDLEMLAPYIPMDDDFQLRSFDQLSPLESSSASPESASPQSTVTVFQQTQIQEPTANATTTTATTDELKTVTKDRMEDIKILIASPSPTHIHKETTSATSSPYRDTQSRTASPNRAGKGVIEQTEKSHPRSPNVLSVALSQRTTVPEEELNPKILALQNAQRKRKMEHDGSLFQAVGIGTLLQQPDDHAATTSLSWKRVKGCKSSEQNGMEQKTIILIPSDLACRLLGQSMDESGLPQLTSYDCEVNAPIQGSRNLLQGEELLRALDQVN
# T1 sequence (Q09472 1-595 limits assumed): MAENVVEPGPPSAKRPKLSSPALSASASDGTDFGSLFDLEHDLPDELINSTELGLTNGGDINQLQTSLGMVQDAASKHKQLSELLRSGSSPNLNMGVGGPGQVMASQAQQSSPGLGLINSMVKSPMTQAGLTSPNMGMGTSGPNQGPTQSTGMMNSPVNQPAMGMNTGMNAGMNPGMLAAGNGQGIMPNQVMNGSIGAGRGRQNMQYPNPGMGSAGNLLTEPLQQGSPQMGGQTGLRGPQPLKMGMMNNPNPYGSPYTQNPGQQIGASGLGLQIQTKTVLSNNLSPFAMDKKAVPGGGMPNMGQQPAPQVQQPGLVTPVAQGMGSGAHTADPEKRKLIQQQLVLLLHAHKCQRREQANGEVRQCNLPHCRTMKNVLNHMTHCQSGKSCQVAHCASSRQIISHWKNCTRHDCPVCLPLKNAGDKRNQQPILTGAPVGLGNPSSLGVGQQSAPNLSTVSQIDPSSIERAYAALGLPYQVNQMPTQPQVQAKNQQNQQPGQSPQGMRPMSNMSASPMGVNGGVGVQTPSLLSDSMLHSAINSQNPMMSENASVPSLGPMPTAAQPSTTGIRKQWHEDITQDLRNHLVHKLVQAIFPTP
Structure (SMILES),IC50 (VEGF),IC50 [1],IC50 [2],melting point
CCN(CC)c1ccc(C=C2C(=O)NC(=O)NC2=O)cc1 [P2083675],75 µM,50 µM,35 µM,
O=C1NC(=O)C(=Cc2ccc([N+](=O)[O-])s2)C(=O)N1 [PX074037],30 µM,35 µM,100 µM,
"O=C1NC(=S)NC(=O)C1=Cc1ccc([N+](=O)[O-])s1 [PX074038, 5-(5-Nitro-thiophen-2-ylmethylene)-2-thioxo-dihydro-pyrimidine-4,6-dione]",,50 µM,20 µM,285 °C (dec.)
"O=C1NC(=S)NC(=O)C1=Cc1c[nH]c2ccccc12 [PX075276, 5-(1H-Indol-3-ylmethylene)-2-thioxo-dihydro-pyrimidine-4,6-dione]",18.8 µM,10.8 µM,30 µM,
O=C1NC(=S)NC(=O)C1=Cc1ccc(-c2cc(C(F)(F)F)cc(C(F)(F)F)c2)o1 [PX075367],75 µM,50 µM,45 µM,
Cc1cc(C)c(C=C2C(=O)NC(=S)NC2=O)[nH]1 [PX089624],6.2 µM,12.5 µM,45 µM,
"CN(C)c1ccc(C=C2C(=O)NC(=S)NC2=O)cc1 [PX089631, 5-(4-dimethylamino-benzylidene)-2-thioxo-dihydro-pyrimidine-4,6-dione]",27.5 µM,16.3 µM,25 µM,
"O=C1NC(=S)NC(=O)C1=Cc1cccc2ccccc12 [PX089635, 5-(Naphthalen-1-ylmethylene)-2-thioxo-dihydro-pyrimidine-4,6-dione]",,,80 µM,280 °C (dec.)
"O=C1NC(=S)NC(=O)C1=Cc1ccc[nH]1 [PX089639, 5-(1H-pyrrol-2-ylmethylene)-2-thioxo-dihydro-pyrimidine-4,6-dione]",50 µM,25 µM,20 µM,280 °C (dec.)
CN(CCC#N)c1ccc(C=C2C(=O)NC(=S)NC2=O)cc1 [PX089643],100 µM,87.5 µM,55 µM,
"O=C1C(=Cc2ccc(Cl)cc2)C(=O)N(c2ccccc2)C(=S)N1c1ccccc1 [PX089645, 5-(4-Chloro-benzylidene)-1,3-diphenyl-2-thioxo-dihydro-pyrimidine-4,6-dione]",200 µM,,80 µM,
"O=C1NC(=S)NC(=O)C1=Cc1cc(Br)cs1 [PX089648, 5-(4-Bromo-thiophen-2-ylmethylene)-2-thioxo-dihydro-pyrimidine-4,6-dione]",32.5 µM,30 µM,45 µM,230 °C (dec.)
"O=C1NC(=S)NC(=O)C1=Cc1ccc(Oc2ccccc2)cc1 [PX106021, 5-(4-Phenoxy-benzylidene)-2-thioxo-dihydro-pyrimidine-4,6-dione]",80 µM,100 µM,,
Cc1cc(C=C2C(=O)NC(=S)NC2=O)c(C)n1-c1ccccc1 [PX106151],75 µM,40 µM,160 µM,
Cc1cc(C)cc(-n2c(C)cc(C=C3C(=O)NC(=S)NC3=O)c2C)c1 [PX106155],45 µM,27.5 µM,10 µM,
CCN1C(=O)/C(=C/C=C/c2ccco2)C(=O)NC1=S [PX106281],30 µM,28 µM,35 µM,
O=C1NC(=S)NC(=O)C1=Cc1cn(Cc2ccccc2)c2ccccc12 [PX106341],20 µM,57.5 µM,49 µM,
